Here are results for 8 molecules from PubChem BioAssay AID1259407 (Chemical Carcinogenesis Research Information System (CCRIS), 2018).

This series relates to CCRIS mutagenicity, Ames/micronucleus/aberration tests. Put plainly: CCRIS mutagenicity studies.
Setting [1] is: Test System: AMES SALMONELLA TYPHIMURIUM, Strain/Indicator: TA98, Metabolic Activation: NONE, Method: PREINCUBATION
Setting [2] is: Test System: AMES SALMONELLA TYPHIMURIUM, Strain/Indicator: TA98, Metabolic Activation: RAT, LIVER, S-9, AROCLOR 1254, Method: STANDARD PLATE.
[3] abbreviates: Test System: AMES SALMONELLA TYPHIMURIUM, Strain/Indicator: TA100, Metabolic Activation: RAT, LIVER, S-9, AROCLOR 1254, Method: STANDARD PLATE.
The mark [4] stands for this setting: Test System: AMES SALMONELLA TYPHIMURIUM, Strain/Indicator: TA1537, Metabolic Activation: NONE, Method: STANDARD PLATE.
[5] abbreviates: Test System: AMES SALMONELLA TYPHIMURIUM, Strain/Indicator: TA1537, Metabolic Activation: RAT, LIVER, S-9, AROCLOR 1254, Method: STANDARD PLATE.
[6] abbreviates: Test System: AMES SALMONELLA TYPHIMURIUM, Strain/Indicator: TA98, Metabolic Activation: NONE, Method: STANDARD PLATE.

The source made the active and inactive calls. No rule for the calls is given here.

Regarding `CO[C@@]1(NC(=O)CSC[C@@H](N)C(=O)O)C(=O)N2C(C(=O)O)=C(CSc3nnnn3C)CS[C@@H]21`, the mutagenic call reads like this: (Test System: AMES SALMONELLA TYPHIMURIUM, Strain/Indicator: TA98, Metabolic Activation: NONE) “inactive; negative”; (Test System: AMES SALMONELLA TYPHIMURIUM, Strain/Indicator: TA98, Metabolic Activation: S-9) “inactive; negative”; (Test System: AMES SALMONELLA TYPHIMURIUM, Strain/Indicator: TA100, Metabolic Activation: NONE) “inactive; negative”; (Test System: AMES SALMONELLA TYPHIMURIUM, Strain/Indicator: TA100, Metabolic Activation: S-9) “inactive; negative”; (Test System: AMES SALMONELLA TYPHIMURIUM, Strain/Indicator: TA1535, Metabolic Activation: NONE) “inactive; negative”; (Test System: AMES SALMONELLA TYPHIMURIUM, Strain/Indicator: TA1535, Metabolic Activation: S-9) “inactive; negative”. Moreover, the mutagenic call by setting is: (Test System: AMES SALMONELLA TYPHIMURIUM, Strain/Indicator: TA1537, Metabolic Activation: NONE) “inactive; negative”; (Test System: AMES SALMONELLA TYPHIMURIUM, Strain/Indicator: TA1537, Metabolic Activation: S-9) “inactive; negative”; (Test System: AMES SALMONELLA TYPHIMURIUM, Strain/Indicator: TA1538, Metabolic Activation: NONE) “inactive; negative”; (Test System: AMES SALMONELLA TYPHIMURIUM, Strain/Indicator: TA1538, Metabolic Activation: S-9) “inactive; negative”; (Test System: E. COLI, Strain/Indicator: WP2 UVRA, Metabolic Activation: NONE) “inactive; negative”; (Test System: E. COLI, Strain/Indicator: WP2 UVRA, Metabolic Activation: S-9) “inactive; negative”.
Take `O=[N+]([O-])c1cccc(Br)c1`: the mutagenic call runs as follows: under setting [1], “inactive; negative”; (Test System: AMES SALMONELLA TYPHIMURIUM, Strain/Indicator: TA98, Metabolic Activation: RAT, LIVER, S-9, KANECHLOR 500, Method: PREINCUBATION) “inactive; negative”; (Test System: AMES SALMONELLA TYPHIMURIUM, Strain/Indicator: TA100, Metabolic Activation: RAT, LIVER, S-9, KANECHLOR 500, Method: PREINCUBATION) “active; positive”.
For `NNc1nnc(NN)c2ccccc12`, the mutagenic call reads like this: (Test System: AMES SALMONELLA TYPHIMURIUM, Strain/Indicator: TA97, Metabolic Activation: NONE, Method: STANDARD PLATE) “active; positive”; under setting [2], “active; positive”; under setting [3], “inactive; negative”; (Test System: AMES SALMONELLA TYPHIMURIUM, Strain/Indicator: TA102, Metabolic Activation: NONE, Method: STANDARD PLATE) “active; positive”; (Test System: AMES SALMONELLA TYPHIMURIUM, Strain/Indicator: TA104, Metabolic Activation: NONE, Method: STANDARD PLATE) “inactive; negative”; (Test System: AMES SALMONELLA TYPHIMURIUM, Strain/Indicator: TA1535, Metabolic Activation: RAT, LIVER, S-9, AROCLOR 1254, Method: STANDARD PLATE) “inactive; negative”. Moreover, the mutagenic call is, setting by setting: under setting [4], “active; positive”; under setting [5], “active; positive”; (Test System: AMES SALMONELLA TYPHIMURIUM, Strain/Indicator: TA1538, Metabolic Activation: NONE, Method: STANDARD PLATE) “active; positive”.
On to `Clc1cccc(C(Cl)(Cl)Cl)n1`, for which the mutagenic call is, setting by setting: (Test System: AMES SALMONELLA TYPHIMURIUM, Strain/Indicator: TA97, Metabolic Activation: HAMSTER, LIVER, S-9, AROCLOR 1254 (10%), Method: PREINCUBATION) “inactive; negative”; (Test System: AMES SALMONELLA TYPHIMURIUM, Strain/Indicator: TA97, Metabolic Activation: NONE, Method: PREINCUBATION) “inactive; negative”; (Test System: AMES SALMONELLA TYPHIMURIUM, Strain/Indicator: TA97, Metabolic Activation: RAT, LIVER, S-9, AROCLOR 1254 (10%), Method: PREINCUBATION) “inactive; negative”; (Test System: AMES SALMONELLA TYPHIMURIUM, Strain/Indicator: TA98, Metabolic Activation: HAMSTER, LIVER, S-9, AROCLOR 1254 (5%), Method: PREINCUBATION) “inactive; negative”; (Test System: AMES SALMONELLA TYPHIMURIUM, Strain/Indicator: TA98, Metabolic Activation: HAMSTER, LIVER, S-9, AROCLOR 1254 (10%), Method: PREINCUBATION) “active; positive”; (Test System: AMES SALMONELLA TYPHIMURIUM, Strain/Indicator: TA98, Metabolic Activation: HAMSTER, LIVER, S-9, AROCLOR 1254 (30%), Method: PREINCUBATION) “active; positive”. In addition, the mutagenic call was “inactive; negative” under setting [1]; “inactive; negative” (Test System: AMES SALMONELLA TYPHIMURIUM, Strain/Indicator: TA98, Metabolic Activation: RAT, LIVER, S-9, AROCLOR 1254 (5%), Method: PREINCUBATION); “active; positive” (Test System: AMES SALMONELLA TYPHIMURIUM, Strain/Indicator: TA98, Metabolic Activation: RAT, LIVER, S-9, AROCLOR 1254 (10%), Method: PREINCUBATION); “active; positive” (Test System: AMES SALMONELLA TYPHIMURIUM, Strain/Indicator: TA98, Metabolic Activation: RAT, LIVER, S-9, AROCLOR 1254 (30%), Method: PREINCUBATION); “inactive; negative” (Test System: AMES SALMONELLA TYPHIMURIUM, Strain/Indicator: TA100, Metabolic Activation: HAMSTER, LIVER, S-9, AROCLOR 1254 (5 OR 10%), Method: PREINCUBATION); “active; positive” (Test System: AMES SALMONELLA TYPHIMURIUM, Strain/Indicator: TA100, Metabolic Activation: HAMSTER, LIVER, S-9, AROCLOR 1254 (30%), Method: PREINCUBATION). Besides, the mutagenic call is “inactive; negative” (Test System: AMES SALMONELLA TYPHIMURIUM, Strain/Indicator: TA100, Metabolic Activation: NONE, Method: PREINCUBATION); “inactive; negative” (Test System: AMES SALMONELLA TYPHIMURIUM, Strain/Indicator: TA100, Metabolic Activation: RAT, LIVER, S-9, AROCLOR 1254 (5 OR 10%), Method: PREINCUBATION); “inactive; negative” (Test System: AMES SALMONELLA TYPHIMURIUM, Strain/Indicator: TA100, Metabolic Activation: RAT, LIVER, S-9, AROCLOR 1254 (30%), Method: PREINCUBATION); “inactive; negative” (Test System: AMES SALMONELLA TYPHIMURIUM, Strain/Indicator: TA1535, Metabolic Activation: HAMSTER, LIVER, S-9, AROCLOR 1254 (10%), Method: PREINCUBATION); “inactive; negative” (Test System: AMES SALMONELLA TYPHIMURIUM, Strain/Indicator: TA1535, Metabolic Activation: NONE, Method: PREINCUBATION); “inactive; negative” (Test System: AMES SALMONELLA TYPHIMURIUM, Strain/Indicator: TA1535, Metabolic Activation: RAT, LIVER, S-9, AROCLOR 1254 (10%), Method: PREINCUBATION).
Take `CN(N=O)C(=O)N[C@@H]1O[C@H](CO)[C@H](O)[C@H](O)[C@H]1O`: under “Test System: CHINESE HAMSTER V-79, Strain/Indicator: V-79/8-AZAGUANINE, Metabolic Activation: NONE, Method: STANDARD PLATE”, the mutagenic call was “active; positive”.
With `O=[N+]([O-])c1ccc2c(c1)CCc1cc([N+](=O)[O-])ccc1-2`, the mutagenic call is, setting by setting: (Test System: AMES SALMONELLA TYPHIMURIUM, Strain/Indicator: TA98(1,8-DNP6), Metabolic Activation: NONE, Method: STANDARD PLATE) “active; positive”; (Test System: AMES SALMONELLA TYPHIMURIUM, Strain/Indicator: TA98(NR), Metabolic Activation: NONE, Method: STANDARD PLATE) “active; positive”; under setting [6], “active; positive”.
For the molecule `O=C1c2c(O)ccc3c2[C@H](c2ccc(O)c4c2[C@H]3[C@H]2O[C@H]2C4=O)[C@H]2O[C@@H]12`, the mutagenic call is “active; positive” under setting [6]; “active; positive” under setting [2]; “active; positive” (Test System: AMES SALMONELLA TYPHIMURIUM, Strain/Indicator: TA98, Method: STANDARD PLATE); “active; positive” (Test System: AMES SALMONELLA TYPHIMURIUM, Strain/Indicator: TA100, Metabolic Activation: NONE, Method: STANDARD PLATE); “active; positive” under setting [3]; “active; positive” under setting [4]. The mutagenic call under setting [5] was “active; positive”.
Regarding `CC(O)c1ccc2ccc3cccc4ccc1c2c34` (centres undefined), where the note is “Test System: AMES SALMONELLA TYPHIMURIUM, Strain/Indicator: TA98, Metabolic Activation: HUMAN, LIVER, CYTOSOL, PAPS, Method: PREINCUBATION”, the mutagenic call is “active; positive”.
